Assay results as given in patent publication US10167279B2 (NOVARTIS AG, priority 2014, dated 2019).
pIC50: −log10 of the molar value.

Molecular target: C-Raf FL (Homo sapiens (Human), UniProt P04049, Y340E/Y341E)
Experiment: In vitro Raf activity determination (Alpha Screen, phospho-MEK), C-Raf FL (full length, Y340E/Y341E)
Format: biochemical
Settings: ATP 1 μM; 60 min pre-incubation; 1 hour reaction; column head does not say FL or TR
In short: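 Sf9-expressed C-Raf incubated with biotinylated kinase-dead MEK1 (K97R) in 50 mM Tris pH 7.5, 15 mM MgCl2, 0.01% BSA, 1 mM DTT with compound, 60 min at room temperature. Phospho-MEK detected by anti-p-MEK AlphaScreen luminescence; IC50 by non-linear regression.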

C-Raf FL, sequence (P04049 whole entry Y340E/Y341E): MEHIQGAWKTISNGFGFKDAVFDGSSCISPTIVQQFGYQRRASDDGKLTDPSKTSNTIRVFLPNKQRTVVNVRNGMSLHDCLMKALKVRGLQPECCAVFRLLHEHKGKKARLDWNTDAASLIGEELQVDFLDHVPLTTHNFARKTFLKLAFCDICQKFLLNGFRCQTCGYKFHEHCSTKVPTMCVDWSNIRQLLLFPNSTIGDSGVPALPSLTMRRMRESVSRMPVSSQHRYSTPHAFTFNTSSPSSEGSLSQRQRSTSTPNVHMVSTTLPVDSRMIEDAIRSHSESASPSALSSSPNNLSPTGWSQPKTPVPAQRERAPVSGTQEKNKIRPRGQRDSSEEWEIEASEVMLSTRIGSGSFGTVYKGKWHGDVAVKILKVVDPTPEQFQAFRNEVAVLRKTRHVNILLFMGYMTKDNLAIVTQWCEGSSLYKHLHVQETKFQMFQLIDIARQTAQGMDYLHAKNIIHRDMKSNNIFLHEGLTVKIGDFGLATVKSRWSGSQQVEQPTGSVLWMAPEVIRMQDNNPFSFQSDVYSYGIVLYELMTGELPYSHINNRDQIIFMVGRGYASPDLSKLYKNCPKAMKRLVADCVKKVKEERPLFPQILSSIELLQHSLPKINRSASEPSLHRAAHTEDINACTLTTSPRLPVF
C-Raf FL, sequence (P63104 whole entry partner): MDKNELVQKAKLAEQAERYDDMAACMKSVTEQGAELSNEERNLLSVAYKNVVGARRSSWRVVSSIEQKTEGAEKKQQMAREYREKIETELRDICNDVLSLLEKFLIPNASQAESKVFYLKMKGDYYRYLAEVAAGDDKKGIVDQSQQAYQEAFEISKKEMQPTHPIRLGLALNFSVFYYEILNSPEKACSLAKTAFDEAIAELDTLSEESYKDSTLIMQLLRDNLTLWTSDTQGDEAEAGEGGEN

Compound	pIC50
Cc1nc2cc(C3CCOCC3)cc(-c3cc(NC(=O)c4cnnc(C(F)(F)F)c4)ccc3C)c2[nH]1 [Example 221, N-(4-methyl-3-(2-methyl-5-(tetrahydro-2H-pyran-4-yl)-1H-benzo[d]imidazol-7-yl)phenyl)-6-(trifluoromethyl) pyridazine-4-carboxamide]	8.70
Cc1ccc(NC(=O)c2ccnc(C(F)(F)F)c2)cc1-c1cc(C2CCOCC2)nc(N(CCO)CCO)c1 [Example 176]	9.16
Cc1ccc(NC(=O)c2cccc(C(F)(F)F)c2)cc1-c1cccc(C2COC2)c1 [Example 2, N-(6-methyl-3′-(oxetan-3-yl)-[1,1′-biphenyl]-3-yl)-3-(trifluoromethyl)benzamide]	9.15
CCOc1ncc(-c2cc(NC(=O)c3ccnc(C(C)(C)F)c3)ccc2C)cc1C1(CO)CCOC1 (centres unmarked) [Example 291, N-(3-(6-ethoxy-5-(3-(hydroxymethyl)tetrahydrofuran-3-yl)pyridin-3-yl)-4-methylphenyl)-2-(2-fluoropropan-2-yl)isonicotinamide]	9.00
Cc1ccc(NC(=O)c2cccc(C(F)(F)F)c2)cc1-c1cc(C2COC2)c2nccn2n1 [Example 6, N-(4-methyl-3-(8-(oxetan-3-yl)imidazo[1,2-b]pyridazin-6-yl)phenyl)-3-(trifluoromethyl)benzamide]	9.52
Cc1nc2cc(C3CCOCC3)cc(-c3cc(NC(=O)c4ccnc(C(C)(F)F)c4)ccc3C)c2[nH]1 [Example 222, 2-(1,1-difluoroethyl)-N-(4-methyl-3-(2-methyl-5-(tetrahydro-2H-pyran-4-yl)-1H-benzo[d]imidazol-7-yl)phenyl) isonicotinamide]	9.40
CCOc1ncc(-c2cc(NC(=O)c3ccnc(C(C)(C)F)c3)ccc2C)cc1C1(O)CCOC1 (centres unmarked) [Example 295, N-(3-(6-ethoxy-5-(3-hydroxytetra-hydrofuran-3-yl)pyridin-3-yl)-4-methylphenyl)-2-(2-fluoropropan-2-yl)isonicotinamide]	9.00
CCC(F)(F)c1cc(C(=O)Nc2cnc(C)c(-c3cc(C4CCOCC4)nc(N4CCC(O)CC4)c3)c2)ccn1 [Example 185, 2-(1,1-difluoropropyl)-N-(2′-(4-hydroxypiperidin-1-yl)-2-methyl-6′-(tetrahydro-2H-pyran-4-yl)-[3,4′-bipyridin]-5-yl) isonicotinamide]	9.48
Cc1ccc(NC(=O)c2ccnc(C(F)(F)F)c2)cc1-c1cc2c(c(C3CCOCC3)c1)OC(C)(C)C(=O)N2 [Example 196, N-(3-(2,2-dimethyl-3-oxo-8-(tetrahydro-2H-pyran-4-yl)-3,4-dihydro-2H-benzo[b][1,4]oxazin-6-yl)-4-methylphenyl)-2-(trifluoromethyl) isonicotinamide]	9.40
Cc1ccc(NC(=O)c2cccc(C(F)(F)F)c2)cc1-c1cc(C2CCOCC2)nc(N2CCC(O)CC2)c1 [Example 186, N-(3-(2-(4-hydroxypiperidin-1-yl)-6-(tetrahydro-2H-pyran-4-yl)pyridin-4-yl)-4-methylphenyl)-3-(trifluoromethyl) benzamide]	9.08
Cc1ccc(NC(=O)c2cnnc(C(F)(F)F)c2)cc1-c1cc(OCCO)nc(C2CCOCC2O)c1 (centres unmarked) [Example 245]	9.00
Cc1ccc(NC(=O)c2ccnc(C(F)(F)F)n2)cc1-c1cc(OCCO)nc(C2CCOCC2)c1 [Example 254, N-(3-(2-(2-hydroxyethoxy)-6-(terahydro-2H-pyran-4-yl)pyridin-4-yl)-4-methylphenyl)-2-(trifluoromethyl) pyrimidine-4-carboxamide]	9.52

The next compounds have a higher pIC50 than those just listed; values first:

pIC50	Compound
9.69	COC1(c2cc(-c3cc(NC(=O)c4ccnc(C(C)(F)F)c4)ccc3C)cnc2OCCO)COC1 [Example 60, 2-(1,1-difluoroethyl)-N-(3-(6-(2-hydroxyethoxy)-5-(3-methoxyoxetan-3-yl)pyridin-3-yl)-4-methylphenyl)isonicotin-amide]
9.87	Cc1ccc(NC(=O)c2cccc(C(F)(F)F)c2)cc1-c1cc(OCCO)nc(C2CCOCC2)c1 [Example 189, N-(3-(2-(2-hydroxyethoxy)-6-(tetrahydro-2H-pyran-4-yl)pyridin-4-yl)-4-methylphenyl)-3-(trifluoromethyl) benzamide]
10.00	Cc1ccc(NC(=O)c2cc(C(F)(F)F)cn(C)c2=O)cc1-c1cc(OCCO)nc(C2CCOCC2)c1 [Example 253, N-(3-(2-(2-hydroxyethoxy)-6-(terahydro-2H-pyran-4-yl)pyridin-4-yl)-4-methylphenyl)-1-methyl-2-oxo-5-(trifluoromethyl)-1,2-dihydropyridine-3-carboxamide]
10.05	Cc1ccc(NC(=O)c2ccnc(C(F)(F)F)c2)cc1-c1cc(C2CCOCC2)nc(N2CCC(C)(N)CC2)c1 [Example 321, N-(3-(2-(4-amino-4-methylpiperidin-1-yl)-6-(tetrahydro-2H-pyran-4-yl)pyridin-4-yl)-4-methylphenyl)-2-(trifluoromethyl)isonicotinamide]
10.10	COCCNc1nnc(-c2cc(NC(=O)c3ccnc(C(F)(F)F)c3)ccc2C)cc1C1CCOCC1 [Example 307, N-(3-(6-((2-methoxyethyl)amino)-5-(tetrahydro-2H-pyran-4-yl)pyridazin-3-yl)-4-methylphenyl)-2-(trifluoromethyl)isonicotinamide]
10.15	Cc1ccc(NC(=O)c2cc(C(F)(F)F)ccn2)cc1-c1cc(OC[C@H](O)CO)nc(C2CCOCC2)c1 [Example 283, (R)-N-(3-(2-(2,3-dihydroxypropoxy)-6-(tetrahydro-2H-pyran-4-yl)pyridin-4-yl)-4-methylphenyl)-4-(trifluoromethyl) picolinamide]
10.15	CCOc1nnc(-c2cc(NC(=O)c3ccnc(C(C)(C)F)c3)ccc2C)cc1C1CCOCC1 [Example 238, N-(3-(6-ethoxy-5-(tetrahydro-2H-pyran-4-yl)pyridazin-3-yl)-4-methylphenyl)-2-(2-fluoropropan-2-yl) isonicotinamide]
10.15	Cc1ccc(NC(=O)c2ccnc(C(F)(F)F)c2)cc1-c1cc(C2CCOCC2)c(OC2CCOCC2)nn1 [Example 313, N-(4-methyl-3-(5-tetrahydro-2H-pyran-4-yl-6-((tetrahydro-2H-pyran-4-yl)oxy)pyridazin-3-yl)phenyl)-2-(trifluoromethyl)isonicotinamide]
10.22	Cc1ccc(NC(=O)c2cc(C(F)(F)F)ncn2)cc1-c1cc(OC[C@H](O)CO)nc(C2CCOCC2)c1 [Example 276, (R)-N-(3-(2-(2,3-dihydroxypropoxy)-6-(tetrahydro-2H-pyran-4-yl)pyridin-4-yl)-4-methylphenyl)-6-(trifluoromethyl) pyrimidine-4-carboxamide]
10.30	Cc1ccc(NC(=O)c2cc(C(F)(F)F)ccn2)cc1-c1cc(OCCO)nc(C2CCOCC2)c1 [Example 272, N-(3-(2-(2-hydroxyethoxy)-6-(tetrahydro-2H-pyran-4-yl)pyridin-4-yl)-4-methylphenyl)-4-(trifluoromethyl) picolinamide]
10.70	Cc1ccc(NC(=O)c2ccnc(C(F)(F)CF)c2)cc1-c1cc(OCCO)nc(C2CCOCC2)c1 [Example 268, N-(3-(2-(2-hydroxyethoxy)-6-(tetrahydro-2H-pyran-4-yl)pyridin-4-yl)-4-methylphenyl)-2-(1,1,2-trifluoroethyl) isonicotinamide]
